Target: human MRGPRD (Homo sapiens, UniProt Q8TDS7)
Experiment: MRGPRD antagonist activity, IP-One HTRF assay in CHO cells stably expressing human MRGPRD (versus 100 μM β-Alanine agonist)
Assay type: cell-based
Procedure, shortened: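 CHO cells stably expressing human MRGPRD, plated overnight at 37 °C, were treated with antagonist plus agonist in Tris-HCl/NaCl/LiCl buffer pH 8, incubated 1 h at 37 °C then 1 h at room temperature. IP-1 accumulation read by HTRF; IC50 and percent antagonism of maximum efficacy averaged, SEM reported.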

human MRGPRD, sequence (Q8TDS7 whole entry): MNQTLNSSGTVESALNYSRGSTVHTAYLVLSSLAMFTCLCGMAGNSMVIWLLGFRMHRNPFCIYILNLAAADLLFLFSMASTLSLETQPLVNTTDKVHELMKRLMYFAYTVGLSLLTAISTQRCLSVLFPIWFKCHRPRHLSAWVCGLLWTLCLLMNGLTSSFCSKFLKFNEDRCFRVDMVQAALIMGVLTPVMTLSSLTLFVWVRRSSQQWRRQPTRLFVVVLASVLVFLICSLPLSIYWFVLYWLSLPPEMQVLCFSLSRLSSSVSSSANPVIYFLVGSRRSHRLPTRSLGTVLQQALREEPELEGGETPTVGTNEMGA

Compound | IC50 [µM]
Cc1c(-c2cccc(-n3nnc(C(=O)Nc4ccncc4)c3C3CC3)c2)cnn1-c1ccccc1 [Compound 7-240] | 0.1 to 0.5
O=C(Nc1ccncc1)c1nnn(-c2cccc(-c3cnn(C4CCC4)c3)c2)c1C1CC1 [Compound 7-243] | 0.5 to 1
CC(=O)c1cccc(-c2cc(-n3nnc(C(=O)Nc4ccncc4)c3C3CC3)ccc2F)c1 [Compound 7-245] | 0.5 to 1
Cc1cc(-n2nnc(C(=O)Nc3ccncc3)c2C2CC2)ccc1-c1cn(C)nc1C [Compound 7-246] | 0.5 to 1
CC(C)n1cc(-c2cccc(-n3nnc(C(=O)Nc4ccncc4)c3C3CC3)c2)cn1 [Compound 7-251] | 0.5 to 1
CC(=O)c1ccc(-c2cccc(-n3nnc(C(=O)Nc4ccncc4)c3C3CC3)c2)c(F)c1C [Compound 7-252] | 0.5 to 1
Cc1cc(NC(=O)c2nnn(-c3cccc(-c4ccn(C)n4)c3)c2C2CC2)ccn1 [Compound 7-253] | 0.5 to 1
Cc1nn(-c2ccccc2)c(C)c1-c1cccc(-n2nnc(C(=O)Nc3ccncc3)c2C2CC2)c1 [Compound 7-255] | 0.5 to 1
O=C(Nc1ccncc1)c1nnn(-c2cccc(-c3cnn(-c4ccccc4)c3)c2)c1C1CC1 [Compound 7-256] | 0.5 to 1
Cc1ccc(-n2nnc(C(=O)Nc3ccncc3)c2C2CC2)cc1-c1cnn(C(C)C)c1 [Compound 7-260] | 0.5 to 1
CC(=O)c1ccc(-c2cccc(-n3nnc(C(=O)Nc4ccncc4)c3C3CC3)c2)c(C)c1 [Compound 7-263] | 0.5 to 1
CC(=O)c1ccc(-c2cccc(-n3nnc(C(=O)Nc4ccncc4)c3C3CC3)c2)s1 [Compound 7-265] | 0.5 to 1
O=C(Nc1ccncc1)c1nnn(-c2cccc(-c3cnn(C4CCCC4)c3)c2)c1C1CC1 [Compound 7-266] | 0.5 to 1
Cc1nn(C)c(C)c1-c1ccc(-n2nnc(C(=O)Nc3ccncc3)c2C2CC2)c(C#N)c1 [Compound 7-267] | 0.5 to 1
COc1cc(-c2ccccc2)ccc1-n1nnc(C(=O)Nc2ccnc(C)c2)c1C1CC1 [Compound 7-272] | 0.5 to 1
N#CCc1ccc(-c2cccc(-n3nnc(C(=O)Nc4ccncc4)c3C3CC3)c2)cc1 [Compound 7-273] | 0.5 to 1
O=C(Nc1ccncc1)c1nnn(-c2cccc(-c3ccccc3O)c2)c1C1CC1 [Compound 7-276] | 0.5 to 1
Cc1ccc(CNC(=O)c2nnn(-c3cccc(-c4ccn(C5CCC5)n4)c3)c2C2CC2)cn1 [Compound 7-278] | 0.5 to 1

Compound | IC50 [µM]
CC(=O)c1ccc(-c2cccc(-n3nnc(C(=O)Nc4ccncc4)c3C3CC3)c2)cc1F [Compound 7-280] | 0.5 to 1
O=C(Nc1ccncc1)c1nnn(-c2cccc(-c3cnn4c3CCC4)c2)c1C1CC1 [Compound 7-283] | 0.5 to 1
CCc1ccc(-c2cccc(-n3nnc(C(=O)Nc4ccncc4)c3C3CC3)c2)cc1 [Compound 7-284] | 0.5 to 1
COc1ccc(-c2cccc(-n3nnc(C(=O)Nc4ccncc4)c3C3CC3)c2)c(C)c1 [Compound 7-287] | 1 to 3
CC(C)(C)n1cc(-c2cccc(-n3nnc(C(=O)Nc4ccncc4)c3C3CC3)c2)cn1 [Compound 7-288] | 1 to 3
Cc1cc(NC(=O)c2nnn(-c3cccc(-c4c(C)nn(C)c4C)c3)c2C2CC2)ccn1 [Compound 7-291] | 1 to 3
N#Cc1cccc(-c2cccc(-n3nnc(C(=O)Nc4ccncc4)c3C3CC3)c2)c1 [Compound 7-293] | 1 to 3
CC(=O)c1ccc(-c2cccc(-n3nnc(C(=O)NCc4ccc(C)nc4)c3C3CC3)c2)c(F)c1 [Compound 7-297] | 1 to 3
O=C(Nc1ccncc1)c1nnn(-c2cccc(-c3ccccc3F)c2)c1C1CC1 [Compound 7-298] | 1 to 3
O=C(Nc1ccncc1)c1nnn(-c2cccc(-c3cccc(O)c3)c2)c1C1CC1 [Compound 7-299] | 1 to 3
Cc1nn(C)c(C)c1-c1ccc(-n2nnc(C(=O)Nc3ccncc3)c2C2CC2)c(C(F)(F)F)c1 [Compound 7-300] | 1 to 3
COCn1cc(-c2cccc(-n3nnc(C(=O)Nc4ccncc4)c3C3CC3)c2)cn1 [Compound 7-301] | 1 to 3
O=C(Nc1ccncc1)c1nnn(-c2cccc(-c3ccccc3Cl)c2)c1C1CC1 [Compound 7-302] | 1 to 3
CCc1ccc(-n2nnc(C(=O)Nc3ccncc3)c2C2CC2)cc1-c1cnn(C(C)C)c1 [Compound 7-304] | 1 to 3
O=C(Nc1ccncc1)c1nnn(-c2cccc(-c3cn[nH]c3)c2)c1C1CC1 [Compound 7-310] | 1 to 3
O=C(Nc1ccncc1)c1nnn(-c2cccc(-c3ccc(-c4ccccc4)cc3)c2)c1C1CC1 [Compound 7-312] | 1 to 3
COc1ccc(-c2cccc(-n3nnc(C(=O)Nc4ccncc4)c3C3CC3)c2)cc1OC [Compound 7-313] | 1 to 3
Cc1nn(C)cc1-c1cccc(-n2nnc(C(=O)Nc3ccncc3)c2C2CC2)c1 [Compound 7-316] | 1 to 3

Results, then the molecule that gave them:

IC50 [µM] | Compound
0.5 to 1 | O=C(Nc1ccncc1)c1nnn(-c2cccc(-c3cnn(CC4CC4)c3)c2)c1C1CC1 [Compound 7-241]
0.5 to 1 | Cc1cc(NC(=O)c2nnn(-c3ccc(-c4ccc(C#N)cc4)nc3)c2C2CC2)ccn1 [Compound 7-242]
0.5 to 1 | COc1ccccc1-c1ccc(-n2nnc(C(=O)Nc3ccncc3)c2C2CC2)c(C)c1 [Compound 7-244]
0.5 to 1 | COc1ccc(-c2cccc(-n3nnc(C(=O)Nc4ccncc4)c3C3CC3)c2)c(F)c1 [Compound 7-247]
0.5 to 1 | O=C(Nc1ccncc1)c1nnn(-c2cccc(-c3cnn(CC(F)(F)F)c3)c2)c1C1CC1 [Compound 7-248]
0.5 to 1 | CC(=O)c1ccc(-c2cccc(-n3nnc(C(=O)Nc4ccncc4)c3C3CC3)c2)cc1C [Compound 7-249]
0.5 to 1 | Cc1nn(C)c(C)c1-c1ccc(-n2nnc(C(=O)Nc3ccncc3)c2C2CC2)cc1C#N [Compound 7-250]
0.5 to 1 | Cc1cc(-c2ccccc2)ccc1-n1nnc(C(=O)Nc2ccncc2)c1C1CC1 [Compound 7-257]
0.5 to 1 | COc1ccc(-c2cccc(-n3nnc(C(=O)Nc4ccncc4)c3C3CC3)c2)cc1C [Compound 7-258]
0.5 to 1 | CC(=O)c1cccc(-c2cc(-n3nnc(C(=O)Nc4ccncc4)c3C3CC3)ccc2C)c1 [Compound 7-259]
0.5 to 1 | COc1ccccc1-c1ccc(-n2nnc(C(=O)Nc3ccncc3)c2C2CC2)cc1C [Compound 7-261]
0.5 to 1 | CCn1ccc(-c2cccc(-n3nnc(C(=O)Nc4ccnc(C)c4)c3C3CC3)c2)n1 [Compound 7-262]
0.5 to 1 | N#Cc1ccc(-c2cccc(-n3nnc(C(=O)Nc4ccncc4)c3C3CC3)c2)cc1 [Compound 7-264]
0.5 to 1 | COc1ccc(-c2cccc(-n3nnc(C(=O)Nc4ccncc4)c3C3CC3)c2)cc1 [Compound 7-268]
0.5 to 1 | N#CCc1cccc(-c2cccc(-n3nnc(C(=O)Nc4ccncc4)c3C3CC3)c2)c1 [Compound 7-269]
0.5 to 1 | O=C(Nc1ccncc1)c1nnn(-c2cccc(-c3cnn(Cc4ccccc4)c3)c2)c1C1CC1 [Compound 7-270]
0.5 to 1 | Cc1cc(-n2nnc(C(=O)Nc3ccncc3)c2C2CC2)ccc1-c1c(C)nn(C)c1C [Compound 7-271]
0.5 to 1 | CC(=O)c1ccc(-c2cccc(-n3nnc(C(=O)Nc4ccncc4)c3C3CC3)c2)cc1 [Compound 7-274]
0.5 to 1 | COc1cc(-n2nnc(C(=O)Nc3ccncc3)c2C2CC2)ccc1-c1c(C)nn(C)c1C [Compound 7-275]
0.5 to 1 | O=C(Nc1ccncc1)c1nnn(-c2cccc(-c3ccc(O)cc3)c2)c1C1CC1 [Compound 7-277]

IC50 [µM] | Compound
0.5 to 1 | Cc1cc(NC(=O)c2nnn(-c3ccc(-c4ccccc4)cn3)c2C2CC2)ccn1 [Compound 7-279]
0.5 to 1 | Cc1nn(-c2ccccc2)cc1-c1cccc(-n2nnc(C(=O)Nc3ccncc3)c2C2CC2)c1 [Compound 7-281]
0.5 to 1 | Cc1cc(NC(=O)c2nnn(-c3cccc(-c4ccn(-c5ccccc5)n4)c3)c2C2CC2)ccn1 [Compound 7-282]
1 to 3 | O=C(Nc1ccncc1)c1nnn(-c2cccc(-c3ccccc3C(F)(F)F)c2)c1C1CC1 [Compound 7-285]
1 to 3 | COc1ccc(-c2cccc(-n3nnc(C(=O)Nc4ccncc4)c3C3CC3)c2)c(OC)c1 [Compound 7-286]
1 to 3 | CC(C)n1cc(-c2cc(-n3nnc(C(=O)Nc4ccncc4)c3C3CC3)ccc2F)cn1 [Compound 7-289]
1 to 3 | Cc1nn(C2CCC2)c(C)c1-c1cccc(-n2nnc(C(=O)Nc3ccncc3)c2C2CC2)c1 [Compound 7-290]
1 to 3 | COc1cccc(-c2cccc(-n3nnc(C(=O)Nc4ccncc4)c3C3CC3)c2)c1 [Compound 7-292]
1 to 3 | O=C(Nc1ccncc1)c1nnn(-c2cccc(-c3cccc(C(F)(F)F)c3)c2)c1C1CC1 [Compound 7-294]
1 to 3 | O=C(Nc1ccncc1)c1nnn(-c2cccc(-c3ccn[nH]3)c2)c1C1CC1 [Compound 7-295]
1 to 3 | O=C(Nc1ccncc1)c1nnn(-c2cccc(-c3ccc[nH]3)c2)c1C1CC1 [Compound 7-296]
1 to 3 | COc1ccc(-c2cccc(-n3nnc(C(=O)Nc4ccncc4)c3C3CC3)c2)cc1F [Compound 7-303]
1 to 3 | Cc1c(-c2cccc(-n3nnc(C(=O)Nc4ccncc4)c3C3CC3)c2)cnn1C [Compound 7-305]
1 to 3 | CCCn1cc(-c2cccc(-n3nnc(C(=O)Nc4ccncc4)c3C3CC3)c2)cn1 [Compound 7-306]
1 to 3 | O=C(Nc1ccncc1)c1nnn(-c2cccc(-c3ccc(Cl)cc3)c2)c1C1CC1 [Compound 7-307]
1 to 3 | O=C(Nc1ccncc1)c1nnn(-c2cccc(-c3cccc(F)c3)c2)c1C1CC1 [Compound 7-308]
1 to 3 | CCn1cc(-c2cccc(-n3nnc(C(=O)Nc4ccncc4)c3C3CC3)c2)cn1 [Compound 7-309]
1 to 3 | O=C(Nc1ccncc1)c1nnn(-c2cccc(-c3ccc(F)cc3)c2)c1C1CC1 [Compound 7-311]
1 to 3 | O=C(Nc1ccncc1)c1nnn(-c2cccc(-c3cnn(C4CC4)c3)c2)c1C1CC1 [Compound 7-314]
1 to 3 | Cc1cc(-n2nnc(C(=O)Nc3ccncc3)c2C2CC2)ccc1-c1c(C)nn(C)c1C [Compound 7-315]

Source: patent US20260001871A1, “TRIAZOLE DERIVATIVES AS MODULATORS OF MAS-RELATED G-PROTEIN RECEPTOR D” (ESCIENT PHARMACEUTICALS, INC., priority 2022, published 2026)
